According to paper PMC5118987 (Antimicrobial Agents and Chemotherapy, 2016):

What was measured:
[1] = system: NRTI-, NNRTI- and PI-Resistant HIV-1 Mutants; test: Antiviral activity against NRTI-, NNRTI- and PI-resistant HIV-1 mutants; format: cell-based; settings: for EC50: Human immunodeficiency virus 1, WT, Table S7
HIV-1 BaL = settings: primary CD4+ T-cells, 35 days, drug at tissue culture equivalent clinical Cmin (FTC 160 × EC50)
[2] = system: HIV-1 integration in MT-2 cells (HIV-1 IIIb); settings: relative to DMSO
Protocol: Quantification of 2-long terminal repeat (LTR) circles, late reverse transcription products, and integration junctions was adapted from a previously described method ([30]). […] Three hours after viral adsorption, the infected cells were washed twice with 20 ml of RPMI 1640 medium containing 10% FBS and antibiotics and seeded in 6-well plates in 2 ml of culture medium at 1 × 10^6 cells per well. […] These plates were incubated at 37°C for either 12 h (for late reverse transcription product quantification) or 24 h (for 2-LTR circle and Alu-LTR product quantification), after which time the cells were harvested for total DNA isolation. DNA was extracted from each well using the QIAamp DNA minikit (Qiagen, Valencia, CA) and collected as a 100-μl eluate. TaqMan real-time PCR-quantified 2-LTR junctions (2-LTR circles), late reverse transcription products, and integration junctions (Alu-LTR) were normalized to the level of host globin gene in each sample. Quantification by PCR was performed on the ViiA 7 real-time PCR system (Life Technologies, Grand Island, NY).

[3] = HIV-1 IIIb-infected MT-2, compound >20-fold EC50, 24 h

## COC(=O)N[C@H](C(=O)N[C@@H](Cc1ccccc1)[C@@H](O)CN(Cc1ccc(-c2ccccn2)cc1)NC(=O)[C@@H](NC(=O)OC)C(C)(C)C)C(C)(C)C [ATV, atazanavir]
[1]
  EC50: 1.6 ± 0.9 nM
HIV-1 BaL
  Frequency of Viral Breakthrough with RAMs: 0%
  p24+ Wells: 0/24

## Cc1cc(/C=C/C#N)cc(C)c1Nc1ccnc(Nc2ccc(C#N)cc2)n1 [RPV, rilpivirine]
[1]
  EC50: 0.8 ± 0.4 nM
[1]; NNRTI resistant L100I K103N
  EC50 Fold Change Relative to WT: 21.9 fold change
HIV-1 BaL
  Frequency of Viral Breakthrough with RAMs: 25%
  p24+ Wells: 6/24

## CC(C)CN(C[C@@H](O)[C@H](Cc1ccccc1)NC(=O)O[C@H]1CO[C@H]2OCC[C@H]21)S(=O)(=O)c1ccc(N)cc1 [DRV, darunavir]
[1]
  EC50: 3.5 ± 1.6 nM
[2]; HIV-1 IIIb-infected MT-2, compound >20-fold EC50, 12 h
  Late reverse transcription products (fold change): 0.96 ± 0.11 fold change
[2]; [3]
  Alu-LTR integration junctions (fold change): 0.72 ± 0.31 fold change
  Integration failure of 2-LTR circles (fold change): 0.57 ± 0.24 fold change
